Data published in patent US20250270222A1, “AP2 ASSOCIATED KINASE 1 INHIBITORS AND USES THEREOF” (Satellos Bioscience Inc., priority 2023, published 2025).

Columns and labels:
[1] = target: AAK1 (amino acids T27-A365) (Homo sapiens (Human), UniProt Q2M2I8); assay: AAK1 pSENs assay; assay type: biochemical; conditions: for AAK1:GAK pSENs Selectivity: ratio of AAK1 pSENs activity to GAK pSENs activity; for IC50: read-out: AAK1 pSENs:EIC50
How it was run: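 Untagged, biotinylated E. coli-expressed AAK1 at 20 nM preincubated with compound 15 min at 25° C in HEPES pH 7.5 buffer with 10 mM MgCl2 and 1 mM DTT. Reaction started with AQT0759 and ATP, added as 30 uM and 70 uM solutions in equal volume.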

AAK1 = AAK1 (Homo sapiens (Human), UniProt Q2M2I8); assay: pAP2M1 cell-based assay (In-Cell Western); conditions: Hela cells co-transfected with AP2M1 and AAK1, 3 hr treatment, Phospho-AP2M1 (Thr156)
AAK1, sequence (Q2M2I8 whole entry): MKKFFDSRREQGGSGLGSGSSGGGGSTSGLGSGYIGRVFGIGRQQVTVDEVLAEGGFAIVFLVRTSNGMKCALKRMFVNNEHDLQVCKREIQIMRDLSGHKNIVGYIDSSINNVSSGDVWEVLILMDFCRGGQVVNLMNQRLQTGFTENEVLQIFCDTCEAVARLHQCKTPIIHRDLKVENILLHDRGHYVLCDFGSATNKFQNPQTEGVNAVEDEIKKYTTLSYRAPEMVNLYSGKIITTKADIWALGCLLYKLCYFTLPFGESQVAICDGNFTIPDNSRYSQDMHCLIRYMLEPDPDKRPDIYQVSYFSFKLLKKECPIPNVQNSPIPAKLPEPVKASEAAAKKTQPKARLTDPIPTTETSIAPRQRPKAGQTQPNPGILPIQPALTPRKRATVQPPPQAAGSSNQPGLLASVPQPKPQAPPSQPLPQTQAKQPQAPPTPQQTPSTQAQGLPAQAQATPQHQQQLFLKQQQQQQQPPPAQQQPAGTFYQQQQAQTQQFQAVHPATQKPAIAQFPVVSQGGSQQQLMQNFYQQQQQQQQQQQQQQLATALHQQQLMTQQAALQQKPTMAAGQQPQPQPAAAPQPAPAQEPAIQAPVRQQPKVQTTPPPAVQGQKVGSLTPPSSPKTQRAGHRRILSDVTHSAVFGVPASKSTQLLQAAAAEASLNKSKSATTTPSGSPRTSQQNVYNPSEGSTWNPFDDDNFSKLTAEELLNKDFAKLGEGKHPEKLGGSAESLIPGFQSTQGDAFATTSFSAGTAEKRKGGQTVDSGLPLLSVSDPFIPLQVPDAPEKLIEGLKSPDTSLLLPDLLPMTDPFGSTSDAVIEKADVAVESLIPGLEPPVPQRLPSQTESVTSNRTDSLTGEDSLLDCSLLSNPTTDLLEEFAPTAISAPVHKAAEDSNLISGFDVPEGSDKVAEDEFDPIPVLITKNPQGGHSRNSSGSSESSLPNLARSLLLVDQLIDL
Source text: pAP2M1 Cell-Based Assay (In-Cell Western):
The plate was read on Licor Odyssey CLx imaging system (LICOR) to acquire fluorescence intensity at 700 channel and 800 channel.
Data analysis: Fluorescence intensity at 700 channel served as internal standard and 800 channel were normalized with 700 channel.

[2] = target: BIKE (amino acids S38-E345) (K320A, K321A) (Homo sapiens (Human), UniProt Q9NSY1, K320A/K321A); assay: BIKE pSENs assay; assay type: biochemical
BIKE (amino acids S38-E345) (K320A, K321A), sequence (Q9NSY1 38-345 K320A/K321A): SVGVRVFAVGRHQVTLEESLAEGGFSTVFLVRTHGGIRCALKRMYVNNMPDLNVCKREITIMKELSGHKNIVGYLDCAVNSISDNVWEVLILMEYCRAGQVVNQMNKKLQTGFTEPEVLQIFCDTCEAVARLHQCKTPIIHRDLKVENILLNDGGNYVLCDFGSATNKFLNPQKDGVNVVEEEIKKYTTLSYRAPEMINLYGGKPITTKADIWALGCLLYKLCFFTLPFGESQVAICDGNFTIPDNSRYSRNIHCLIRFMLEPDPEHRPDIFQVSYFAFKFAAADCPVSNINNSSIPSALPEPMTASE
Procedure: The recombinant proteins were independently expressed in Esherichia coli BL21(DE3) cells cultured in Luria-Bertani (LB) medium until OD600 reached 0.6-0.8, then cooled to 15° C., and supplemented with 0.5 mM isopropyl 1-thio-D-galactopyranoside (IPTG) induce protein expression 16 h. Cells were harvested and resuspended in lysis buffer (50 mM HEPES pH 7.5, 500 mM NaCl, 5 mM imidazole, 5% glycerol, 0.5 mM Tris (2-carboxyethyl) phosphine (TCEP), cOmplete Protease Inhibitor Tablet (Roche)) and lysed by microfluidics high pressure homogenizer (UH-06, Union-Biotech). Proteins were purified using Ni-Affinity chromatography (His FF column, Bestchrom) and eluted stepwise in binding buffer with 20-300 mM imidazole. Removal of the hexahistidine tag was performed at 4° C. overnight using recombinant TEV protease and reacted with BirA to obtain the corresponding biotinylated-AAK1. BIKE or GAK proteins. Further separated in the reverse Strep column (Strep-Tactin® XT, IBA). The Biotin elution sample was collected containing untagged biotinylated protein was then purified by Ion-exchange chromatography (Mono Q 10/100 GL, Cytiva) and Size-exclusion chromatography (HiLoad 16/600 Superdex 200 pg, Cytiva). The pure protein was stored in a storage buffer 50 mM HEPES (pH 7.5), 300 mM NaCl, 5% glycerol at −80° C. Protein were characterized by SDS-PAGE. LC-MS and aSEC.
BIKE protein was dissolved at 20 nM in 1× enzyme solution (50 mM HEPES pH7.5, 10 mM MgCl2, 1 mM DTT, 1% glycerol, 0.5 mM EGTA, 0.01% Briji35, 0.02% BSA) and 12.5 ul was incubated with 250 nl DMSO or 250 nl compound in DMSO at 25° C. for 15 min. The reaction was started by addition of 12.5 ul of 30 uM AQT0759 (Assayquant, CSKS-AQT0759B) and 40 uM ATP which were diluted in 1× substrate dilution buffer (50 mM HEPES pH7.5, 10 mM MgCl2. 1 mM DTT, 1% glycerol, 0.5 mM EGTA, 0.01% Briji35).

[3] = target: GAK (amino acids Q25-N335) (Homo sapiens (Human), UniProt O14976); assay: GAK pSENs assay; assay type: biochemical
GAK (amino acids Q25-N335), sequence (O14976 25-335): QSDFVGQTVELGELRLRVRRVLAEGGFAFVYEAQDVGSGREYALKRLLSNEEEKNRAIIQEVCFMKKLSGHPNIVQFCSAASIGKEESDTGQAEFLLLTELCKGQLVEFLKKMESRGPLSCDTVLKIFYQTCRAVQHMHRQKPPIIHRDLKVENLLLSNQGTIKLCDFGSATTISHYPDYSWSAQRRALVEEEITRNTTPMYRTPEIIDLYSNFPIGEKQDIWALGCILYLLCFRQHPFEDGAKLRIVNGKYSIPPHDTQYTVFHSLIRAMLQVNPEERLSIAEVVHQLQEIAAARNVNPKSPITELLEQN

AAK1 (amino acids T27-A365), sequence (Q2M2I8 27-365): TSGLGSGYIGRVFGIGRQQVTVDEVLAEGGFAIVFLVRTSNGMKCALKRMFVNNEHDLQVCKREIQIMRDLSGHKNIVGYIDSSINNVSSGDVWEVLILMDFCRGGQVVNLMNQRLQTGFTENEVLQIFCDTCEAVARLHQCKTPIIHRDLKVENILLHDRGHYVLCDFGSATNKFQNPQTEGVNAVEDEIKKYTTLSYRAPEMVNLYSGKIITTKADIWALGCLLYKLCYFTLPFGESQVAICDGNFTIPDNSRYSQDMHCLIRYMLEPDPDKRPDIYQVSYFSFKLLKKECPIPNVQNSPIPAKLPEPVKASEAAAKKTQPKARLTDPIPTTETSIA

Row | AAK1:GAK pSENs Selectivity [1] | IC50 [1] [µM] | IC50 (AAK1) [µM] | IC50 [2] [µM] | IC50 [3] [µM] | SMILES
1 | D (D: 0.16-1.00) | > 1.5 | > 1.5 | > 1.5 | > 1.5 | O=C1C[C@H](OC(=O)N2CCN(c3ccn4ncc(-c5cccnc5OC5CNC5)c4n3)CC2)CN1 [Compound I-43, [(3S)-5-Oxopyrrolidin-3-yl]4-[3-[2-(azetidin-3-yloxy)-3-pyridyl]pyrazolo[1,5-a]pyrimidin-5-yl]piperazine-1-carboxylate]
2 | D (D: 0.16-1.00) | – | – | > 1.5 | > 1.5 | O=C(O[C@@H]1CC(=O)N(C2CCNCC2)C1)N1CCN(c2ccn3ncc(-c4cccnc4OC4CC4)c3n2)CC1 [Compound I-33, (R)-5-Oxo-1-(piperidin-4-yl)pyrrolidin-3-yl 4-(3-(2-cyclopropoxypyridin-3-yl)pyrazolo[1,5-a]pyrimidin-5-yl)piperazine-1-carboxylate]
3 | B (B: 0.016-0.075) | 0.001 to 0.05 | 0.001 to 0.05 | 0.001 to 0.05 | 0.051 to 0.15 | C[C@]1(OC(=O)N2CCN(c3ccn4ncc(-c5cccnc5OC5CC5)c4n3)CC2)CCNC1 (single isomer, unassigned) [Compound I-13]
4 | A (A: ≤0.015) | – | – | > 1.5 | > 1.5 | O=C(O[C@H]1CO[C@H]2OCC[C@H]21)N1CCN(c2ccn3ncc(-c4ccccc4OC4CC4)c3n2)CC1 [Compound I-68, [(3aS,4R,6aR)-2,3,3a, 4,5,6a-hexahydrofuro[2,3-b]furan-4-yl]4-[3-[2-(cyclopropoxy)phenyl]pyrazolo[1,5-a]pyrimidin-5-yl]piperazine-1-carboxylate]
5 | B (B: 0.016-0.075) | – | – | > 1.5 | > 1.5 | COC(=O)N1CC(Oc2ncccc2-c2cnn3ccc(N4CCN(C(=O)O[C@@H]5CC(=O)N(CCOCc6ccccc6)C5)CC4)nc23)C1 [Compound I-84-6, [(3R)-1-(2-benzyloxyethyl)-5-oxo-pyrrolidin-3-yl]-4-[3-[2-(1-methoxycarbonyl-azetidin-3-yl)oxy-3-pyridyl]pyrazolo[1,5-a]pyrimidin-5-yl]piperazine-1-carboxylate]
6 | B (B: 0.016-0.075) | – | – | > 1.5 | > 1.5 | C[C@H]1CN(c2ccn3ncc(-c4cccnc4OC4CC4)c3n2)CCN1C(=O)O[C@@H]1CNC(=O)C1 [Compound I-40, [(3S)-5-Oxopyrrolidin-3-yl](2S)-4-[3-[2-(cyclopropoxy)-3-pyridyl]pyrazolo[1,5-a]pyrimidin-5-yl]-2-methyl-piperazine-1-carboxylate]
7 | C (C: 0.076-0.15) | – | – | > 1.5 | > 1.5 | COC(=O)N1CC(Oc2ncccc2-c2cnn3ccc(N4CCN(C(=O)O[C@@H]5CC(=O)N(C6COC6)C5)CC4)nc23)C1 [Compound I-85, [(3R)-1-(oxetan-3-yl)-5-oxo-pyrrolidin-3-yl]-4-[3-[2-(1-methoxycarbonylazetidin-3-yl)oxy-3-pyridyl]pyrazolo[1,5-a]pyrimidin-5-yl]piperazine-1-carboxylate]
8 | C (C: 0.076-0.15) | – | – | > 1.5 | > 1.5 | Cc1cn2ncc(-c3cccnc3OC3CC3)c2nc1N1CCN(C(=O)O[C@H]2CC(=O)N(C)C2)CC1 [Compound I-111, [(3S)-1-methyl-5-oxo-pyrrolidin-3-yl]-4-[3-[2-(cyclopropoxy)-3-pyridyl]-6-methyl-pyrazolo[1,5-a]pyrimidin-5-yl]piperazine-1-carboxylate]
9 | B (B: 0.016-0.075) | – | – | > 1.5 | > 1.5 | N#C[C@@H]1CN(c2ccn3ncc(-c4cccnc4OC4CC4)c3n2)CCN1C(=O)O[C@@H]1CNC(=O)C1 [Compound I-41, (S)-5-Oxopyrrolidin-3-yl (S)-2-cyano-4-(3-(2-cyclopropoxypyridin-3-yl)pyrazolo[1,5-a]pyrimidin-5-yl)piperazine-1-carboxylate]
10 | C (C: 0.076-0.15) | – | – | > 1.5 | > 1.5 | COC(=O)[C@@H]1CN(c2ccn3ncc(-c4cccnc4OC4CC4)c3n2)CCN1C(=O)O[C@@H]1CNC(=O)C1 [Compound I-41-5, 2-Methyl 1-((S)-5-oxopyrrolidin-3-yl) (S)-4-(3-(2-cyclopropoxypyridin-3-yl)pyrazolo[1,5-a]pyrimidin-5-yl)piperazine-1,2-dicarboxylate]
